Reference: patent publication US20140228315A1, “BLOCKADE OF EOSINOPHIL PRODUCTION BY TOLL-LIKE RECEPTORS” (CHILDREN'S HOSPITAL MEDICAL CENTER, priority 2011, published 2014)

System: developing eosinophils (eosinophil progenitors, EoPs) from LDBM cells
Experiment: Murine eosinophil liquid culture (LDBM cells, IL-5): eosinophil yield after TLR ligand or cytokine exposure
Format: cell-based, mouse
Settings: for eosinophil yield (eosinophil production): wild-type cultures, TLR ligand exposure 18-24 hours on Day 8 in presence of IL-5, then IL-5 alone, yield at day 11-15; for number of mature eosinophils produced (eosinophil yield): cytokines added with IL-5 from Day 8 for the final 6 days of culture
Method: The femurs and tibiae of mice were crushed in a sterile mortar and pestle containing 1×PBS with 2% FBS, and cells were collected by filtration through a 70-μm strainer. Red blood cells were lysed using RBC lysis buffer (Sigma, St. Louis, Mo.), and the remaining cells were subjected to centrifugation at 1700 rpm for 30 minutes on a Histopaque 1083 (Sigma) gradient. LDBM cells were aspirated from the interface, washed twice with 1× PBS and cultured at 0.8-1×10^6 cells per ml in 6-well plates or 24-well plates containing Complete Medium composed of Iscove's Modified Dulbecco's Medium (IMDM) with Glutamax (Gibco, Carlsbad, Calif.), 10% characterized FBS (HyClone, Hudson, N.H.), 2 mM L-glutamine (Gibco), 50 μM 2-ME (Sigma), and penicillin and streptomycin (Gibco) supplemented with 100 ng/mL stem cell factor (SCF; Peprotech, Rocky Hill, N.J.) and 100 ng/mL FLT3-ligand (FLT3L; Peprotech). On day 4, the medium in each non-centrifuged plate was replaced with fresh Complete Medium containing 10 ng/mL murine IL-5 (Peprotech). Medium with IL-5 was changed every 2 days thereafter. On Day 8, some cultures were treated with LPS from E. coli serotype O55:B5 (Sigma), ultrapure LPS from S. minnesota (InvivoGen, San Diego, Calif.), monophosphoryl lipid A from S. minnesota R595LPS (InvivoGen), synthetic lipid A from E. coli (InvivoGen), Pam2CSK4 (InvivoGen), Pam3CSK4 (InvivoGen), imiquimod (InvivoGen), CL264 (InvivoGen), or poly(I:C) (InvivoGen) at indicated doses in the presence of IL-5.
After TLR ligand exposure for 18-24 hours, the medium was changed to Complete Medium with IL-5 at 10 ng/ml for the remaining culture period. For neutralization experiments, monoclonal anti-mouse IFN-γ (clone 37895; R&D Systems, Minneapolis, Minn.) or rat IgG2a isotype antibody was added at 0.3 μg/ml to media during LPS exposure and to Complete Medium with IL-5 thereafter. For some experiments, cytokines (IL-6 at 0.1 ng/ml, IL-10 at 2 ng/ml, IFN-γ at 0.5 ng/ml, TNF-α at 0.5 ng/ml, or the combination of all four) were added on Day 8 to IL-5-containing Complete Medium. Cells were cultured in the presence of these individual cytokines or the cytokine combination for the remainder of the culture period.
Whole bone marrow or LDBM cells were washed twice in 1×PBS containing 1% FBS and 1 mM EDTA at a concentration of 4×10^6 cells/mL and blocked with 0.5 μg rat anti-mouse CD16/CD32 (BD Bioscience, San Diego, Calif.) for 5 minutes at 4° C. Cells were incubated with fluorescent-labeled antibodies for 30 minutes at 4° C. and then washed twice and resuspended in flow cytometry buffer. Antibodies used include rat anti-mouse CD34-FITC (BD Bioscience), rat anti-mouse TLR4-PE (Imgenex, San Diego, Calif.), rat anti-mouse Siglec-F-PE (BD Bioscience), and rat anti-mouse CCR3-FITC (R&D Systems). All flow cytometric data were acquired using a FACS Calibur or FACS Canto flow cytometer (BD Bioscience).
FIG. 3A. A schematic of LPS exposure for eosinophil progenitors is depicted. LDBM cells were stimulated with SCF and FLT3L for 4 days and subsequently cultured with IL-5 for 4 days to initiate eosinophil differentiation. On Day 8, cultured cells were stimulated with LPS and IL-5 for 18-24 hours, after which the medium was changed, and the cells were cultured for another 6 days with IL-5 alone.

CC(C)Cn1cnc2c(N)nc3ccccc3c21 [imiquimod]
eosinophil yield (eosinophil production): significant suppression of eosinophil yield

IL-6: cytokine added at 0.1 ng/ml to IL-5-containing medium
number of mature eosinophils produced (eosinophil yield): no significant effect

monophosphoryl lipid A [MPLA]
eosinophil yield (eosinophil production): dose-dependent suppression of eosinophil production

CCCCNc1nc(N)c2[nH]c(=O)n(Cc3ccc(C(=O)NCC(=O)O)cc3)c2n1 [CL264]
eosinophil yield (eosinophil production): significant suppression of eosinophil yield

Pam3CSK4
eosinophil yield (eosinophil production): dose-dependent reduction in eosinophil yield

IFN-γ: cytokine added at 0.5 ng/ml to IL-5-containing medium
number of mature eosinophils produced (eosinophil yield): no significant effect

TNF-α
number of mature eosinophils produced (eosinophil yield): no significant effect

Pam2CSK4
eosinophil yield (eosinophil production): dose-dependent reduction in eosinophil yield

poly(I:C)
eosinophil yield (eosinophil production): no effect on eosinophil production

synthetic monophosphoryl lipid A [sMPLA]
eosinophil yield (eosinophil production): significant suppression of eosinophil production at higher doses

B1: IL-10: cytokine added at 2 ng/ml to IL-5-containing medium (protein, UniProt P22301 19-178, looked up)
Interleukin-10: SPGQGTQSENSCTHFPGNLPNMLRDLRDAFSRVKTFFQMKDQLDNLLLKESLLEDFKGYLGCQALSEMIQFYLEEVMPQAENQDPDIKAHVNSLGENLKTLRLRLRRCHRFLPCENKSKAVEQVKNAFNKLQEKGIYKAMSEFDIFINYIEAYMTMKIRN
number of mature eosinophils produced (eosinophil yield): no significant effect
